The source of these data is patent US20110067123A1, “MAO-B ELEVATION AS AN EARLY PARKINSON'S DISEASE BIOMARKER” (priority 2008, published 2011).

In data set [1] the test system is mesencephalic cultures. Put plainly: Extracellular H2O2 in medium of dox-induced mesencephalic cultures (Amplex Red). Format: cell-based, mouse. As to conditions: 10 μM deprenyl, 30 μM EUK189 or 500 nM apocynin, FIG. 4. On the procedure: Primary mixed cultures were prepared from the midbrain of 14-day-old mice embryos from MAO-B transgenics and WT controls. Tissue was digested in Neurobasal medium containing 30 U/ml papain and 20 μg/ml DNase at 37° C. for 30 min and mechanically triturated. Dissociated cells were centrifuged at 500×g, resuspended in growth medium (Neurobasal medium supplemented with 10% FBS, 2 mM […], […] supplement without antioxidants, 50 U/ml penicillin, 50 U/ml streptomycin and 50 ng/ml GDNF [57]), and plated on poly-d-lysine-coated 8 well chamber slides (BD-Biocoat) at a density of 10^5 cells per ml. Mixed cultures were grown at 37° C. for 3-5 days before induction with 40 μg/ml doxycycline for 12 hours as per. […] H2O2 in the medium was assayed by Amplex Red per the manufacturer's instructions. Dopaminergic and microglial cell counts were performed following fixation of the cultured cells for 15 min with 4% formaldehyde following by T11^+ (Chemicon) or Iba1^+ (WAKO USA, Richmond, Va.) immunostaining or via uptake of ASP^+ (4-(4-(dimethylamino)styryl)-N-methylpyridinium iodide) (Invitrogen), a fluorescent analogue of dopamine. 10 μM ASP^+ was loaded on to the uninduced or induced cultures in the presence of 20 μM of desipramine to inhibit the norepinephrine transporter which would also take up the dye. ASP^+ fluorescence (red) was visualized in the T11^+ cells after immunostaining with anti-T11 antibody and Alexa fluor 488 conjugated secondary antibody. Averages of manual double blind T11^+ or fluorescent counts of three wells of culture with the same treatment were collected; counts were performed in triplicate.

The test system of data set [2] is dopaminergic SN neurons. Put plainly: Stereological TH+ SN cell counts in inducible astrocytic MAO-B transgenic mice. Type of data set: in vivo, mouse. To be noted: dox-induced transgenic mice; co-treatment i.p. 10-30 mg/kg/day for two weeks; FIG. 3A.
For data set [3], the system named is ST dopaminergic synaptosomes. The data set can be described thus: H2O2 (DCF fluorescence) in isolated ST dopaminergic synaptosomes. Format: in vivo, mouse. To be noted: for elevation of H2O2 levels in ST dopaminergic synaptosomes: dox-induced animals co-treated, DCF fluorescence, FIG. 5C. The procedure:
(§1) Dopaminergic and non-dopaminergic striatal synaptosomes were isolated using a modified immuno-magnetic protocol. Briefly, synaptosomes were prepared from dissected striatal tissue. Dopaminergic synaptosomes were isolated using magnetic beads conjugated to anti-rabbit IgG (Miltenyi Biotech) after capturing them using a rabbit anti-DAT antibody (Chemicon). Under a magnetic field, bead-bound synaptosomes were passed through a column and washed; flow-through in the presence of the magnetic field yielded a fraction enriched in non-dopaminergic striatal synaptosomes. Elution performed in the absence of the magnetic field yielded fractions enriched in dopaminergic striatal synaptosomes. Equal quantities of various fractions of the synaptosomes isolated using DAT antibody including the starting material or control, the unbound fraction, the flow-through, the wash and the eluate were subjected to western analysis to assess relative dopaminergic versus non-dopaminergic synaptosomal purification. Western blots were performed using antibodies against TH (Chemicon 1:500), GABA (Chemicon, 1:1000) or SNAP-25 as a synaptic protein normalization control (Chemicon, 1:1000). Band densities were quantified using a Chemimager (Alpha Innotech, San Leandro, Calif.). Approximately 94% synaptosomes in the eluate were dopaminergic according to densitometric evaluation of the western blot.
Hydrogen peroxide levels were measured in the striatal dopaminergic and nondopaminergic synaptosomes prepared as above from various groups of mice. Mice were injected in the tail vein with ˜200 μl of DCFDA (Calbiochem) which was freshly diluted 100× with PBS from a stock of 100 mg/ml in DMSO as modified from Andrews et. al.. […] Hydrogen peroxide in the synaptosomes with or without 1 mg/ml catalase for 30 min after preparation was visualized as DCF fluorescence at 488 nm excitation and 512 nm emission in a Spectramax Gemini fluorescence plate reader. The relative fluorescence was normalized to synaptosomal protein which was quantified using the Bradford reagent, Bio-Rad.

The test system of data set [4] is mitochondrial complex I. Put plainly: Mitochondrial complex I activity in isolated ST dopaminergic synaptosomes. Type of data set: in vivo, mouse. As to conditions: dox-induced animals co-treated. On the procedure:
as §1, with “blot. […]” for “blot.”

Data set [5] relates to SN dopaminergic neurons. Put plainly: Mitochondrial superoxide in vivo (Mitosox Red) in SN dopaminergic neurons. Set-up: species or system mouse. To be noted: for increases in mitosox red fluorescence within dopaminergic SN neurons: dox-induced transgenics, co-treatment, FIG. 6; for Mean pixel intensity per cell / Total pixel fluorescence per cell: superoxide (mitosox red) in SN dopaminergic neurons, dox-induced plus co-treatment. The procedure:
Mitosox Red (Molecular Probes) was used as an indicator to assess presence of superoxide within cellular mitochondria. 10 μg of Mitosox in 200 μl phosphate-buffered saline was injected into the tail vein of dox-induced transgenics versus controls. Animals were sacrificed 90 minutes later, brains rapidly dissected out and post-fixed overnight in 4% paraformaldehyde. Brains were sectioned at 30 μm using a cryostat. Cellular localization and site of Mitosox Red accumulation in the nigrostriatum was identified by immunofluorescence using anti-TH (Chemicon, 1:500), anti-IBA1 (Wako, 1:500) or anti-GFAP (DAKO, 1:500) antibodies visualized with Fluorescein Avidin D. Mitochondrial localization was confirmed by immunoanalysis using an anti-ATP synthase-specific antibody. Fluorescent imaging was done using a Zeiss LSM510 NLO confocal microscope and images procured using LSM software. Quantification of colocalization and fluorescent intensity was determined using the IMARIS software suite (Bitplane AG, Zurich, Switzerland) on selected cells from multiple sections.

Data set [6] is described as follows: Striatal MPP+ levels by HPLC after MPTP injection. Type of data set: in vivo, mouse. To be noted: 30 mg/kg MPTP, 90 minutes post injection. On the procedure: (§2) Striatal tissue was harvested from dox versus untreated animals 90 minutes following injection of 30 mg/kg MPTP intraperitoneally, immediately immersed in ice cold 0.1 M perchloric acid and sonicated. MPP^+ was measured by HPLC as previously described. Dopamine levels were analyzed in striata dissected two weeks of induction or 24 hrs following MPTP injection post induction by HPLC followed by a 464 pulsed electrochemical detection (Neurochemistry Core, Center for Molecular Neuroscience, Vanderbilt University). Stereological cell counts were performed on immunostained brain sections from brains harvested two weeks after induction using either antibody against tyrosine hydroxylase (TH, Chemicon, 1:500) followed by biotin-labeled secondary antibody and development using DAB (Vector Laboratories). TH^+ cells were counted stereologically throughout the SNpc. Counts for dox removal were performed on brains dissected after removal of dox from the feed for a three week period. Sections were cut at a 40 μm thickness, and every 4th section was counted using a grid of 100×100 μm. Dissector size used was 35×35×12 μm. Neuronal numbers were assessed following NeuN^+ (Chemicon, 1:100) or GABA^+ (Chemicon, 1:1000) immunostaining and astrocytes via GFAP^+ (DAKO, 1:500) and s100-â (DAKO, 1:200) immunostaining. Cells were counted in the SN, striata, and cortex in three independent sections per condition and ten fields per section. […] Dopaminochrome was measured from striatal samples by HPLC as per Ochs et al.
To validate that our transgenic model expresses functionally active MAO-B, we assessed its vulnerability to acute systemic MPTP administration. […] Induced and uninduced transgenic mice and wildtype C57B16 littermates were treated with 30 mg/kg MPTP and striatal MPP levels measured via HPLC (Table 1). […]

Data set [7] deals with tyrosine hydroxylase positive (TH+) cells in mesencephalic cultures. The data set can be described thus: TH+ dopaminergic cell counts and morphology in dox-induced mesencephalic cultures. As to conditions: 40 μg/ml dox, twelve hours; deprenyl co-treatment (10 μM); FIG. 2A. Format: cell-based, mouse.
Data set [8] relates to astroglia. The data set can be described thus: Astrocyte activation by GFAP immunostaining in induced transgenic mice. Type of data set: in vivo, mouse. To be noted: dox-treated transgenic mice, deprenyl co-treatment. The procedure:
as §2, with “Stereological cell counts were performed on immunostained brain sections from brains harvested two weeks after induction using either antibody against tyrosine hydroxylase (TH, Chemicon, 1:500) followed by biotin-labeled secondary antibody and development using DAB (Vector Laboratories).” left out, “Counts for dox removal were performed on brains dissected after removal of dox from the feed for a three week period.” left out, “Dissector size used was 35×35×12 μm.” left out
Immunochemistry was performed on cryosections derived from the SN, striata, and CTX of fixed perfused brains from dox-induced transgenics versus controls. Astrocytic activation was assessed using primary antibodies against GFAP and s100-β. […]

Data set [9] concerns microglia. Put plainly: Microglial activation (Iba1 immunochemistry) in the SN. Format: in vivo, mouse. To be noted: SN of dox-induced transgenics; FIG. 7B. On the procedure:
Immunochemistry was performed on cryosections derived from the SN, striata, and CTX of fixed perfused brains from dox-induced transgenics versus controls. Astrocytic activation was assessed using primary antibodies against GFAP and s100-β. Microglial activation was detected using primary antibodies against […] Horse radish peroxidase or avidin-conjugated secondary antibodies were used to detect primary antibodies following either DAB or Fluorescein/Texas Red staining.

Data set [10] in a line: Locomotor behavioral assessment (open field, Truscan). Type of data set: in vivo, mouse. To be noted: induced mice, dox two weeks, deprenyl-treated. The procedure:
Locomotor function was assessed using an automated Truscan photobeam apparatus (Colbourne Instruments, Allentown, Pa.) under illumination as previously described. Animals were habituated to the apparatus for 10 min then data collected over a 10-min period followed by analysis using Truscan 99 software. Spontaneous horizontal movement was assessed in both control and dox treated versus untreated transgenic mice via both ambulatory velocity and distance in a 10-min period.

Data set [11] has as its system Parkinson's disease (PD) patients. To be noted: cited from earlier work; for mortality rate: clinical PD, given after symptoms were present.

Like-named read-outs stand apart in the source and are kept apart here.

Consider `CC(=O)O.CCOc1cccc(C=NCCN=Cc2cccc(OCC)c2[O-])c1[O-].[Mn]` [EUK-189], for which the “increase in extracellular H2O2” value in data set [1] is given as “prevented the increase”. The “dopaminergic SN cell loss” value in [2] was “attenuated”. The “elevation of H2O2 levels in ST dopaminergic synaptosomes” value in data set [3] is on record as “preventable”. Also, the “loss of CI activity in dopaminergic synaptosomes” value in data set [4] was “attenuated”. Further, in data set [5], the “increases in mitosox red fluorescence within dopaminergic SN neurons” value was “prevented”, the “Mean pixel intensity per cell” value is listed as 15.4 ± 4.0 and the “Total pixel fluorescence per cell” value is given as 126,757 ± 23,798.

Take `C[n+]1ccc(-c2ccccc2)cc1` [MPP+]: the “Striatal MPP+ levels” value in data set [6] (Dox (induced transgenic mice)) is on record as 182 ± 3.4 ng/mg protein; in data set [6] (No Dox (uninduced transgenic mice)), 118 ± 2.3 ng/mg protein; in [6] (WT (wildtype C57Bl6 littermates)), 100 ± 3.5 ng/mg protein.

On to `COc1cc(C(C)=O)ccc1O` [apocynin], for which, in data set [1], the “increase in extracellular H2O2” value is “partial reduction”.

As to `C#CCN(C)[C@H](C)Cc1ccccc1` [deprenyl], the “loss in the number of TH+ cells” value in [7] is recorded as “attenuated”. The “increase in extracellular H2O2” value in [1] is “prevented the increase”. Also, in [8], the “astroglial branching (activation) and increased astroglial brain numbers, GFAP” value is recorded as “inhibited”. The “elevation of H2O2 levels in ST dopaminergic synaptosomes” value in data set [3] was “preventable”. In [4], the “loss of CI activity in dopaminergic synaptosomes” value was “attenuated”. Besides, in [5], the “increases in mitosox red fluorescence within dopaminergic SN neurons” value is “prevented”, the “Mean pixel intensity per cell” value was 10.2 ± 2.1 and the “Total pixel fluorescence per cell” value is 91,937 ± 19,107. Further, the microglial activation entry in data set [9] was “prevented”. Moreover, in data set [10], the locomotor activity entry is “completely unaffected”. Further, the mortality rate entry in data set [11] was “ineffective”. The mortality rate entry in [11] (listed as selegiline) is listed as “no effect”. In data set [11] (early stages of symptomatic PD), the “requirement of L-DOPA supplementation” value was “delayed and reduced”.

Take Catalase: the “DCF fluorescence of dopaminergic synaptosomes from induced animals” value in data set [3] (synaptosomes treated with 1 mg/ml catalase for 30 min after preparation) is “reduced the fluorescence to below uninduced levels”.
